Target: sigma receptors
Assay: Inhibition of 3H-DTG binding to sigma receptors in rat brain in vitro
Conditions: 2 nM 3H-DTG, rat brain without cerebellum, 25° C., 20 min
Method: INHIBITION OF 3H-DTG BINDING TO SIGMA RECEPTORS IN RAT BRAIN IN VITRO
By this method the inhibition by drugs of the binding of 2 nM ^3 H-DTG (1,3,di-o-tolyl guanidine) to sigma receptors in homogenates or membranes from rat brain without cerebellum is determined in vitro as modified from Weber et al. Proc. Natl. Acad. Sci. 1986, 83,8784.
Homogenate: Rats (150-250 g) are decapitated and the brains (without cerebellum) quickly removed and placed on ice, weighed and homogenized in 100 vol ice-cold (0° C.) 50 mM Tris-buffer (pH 7.7) in an ethanol rinsed glass/teflon homogenizer at 0° C. and kept on ice until use.
P2-membranes: Brains are homogenized in 10 vol 0.32 M sucrose in an ethanol rinsed glass/teflon homogenizer with 10 strokes up and down. The homogenate is centrifuged for 10 min at 900×gm at 4° C. The supernatant is decanted and centrifuged for 20 min at 50,000 gm at 4° C. The resulting pellet is resuspended in 10 vol ice-cold […] Tris-buffer (pH 7.7) and incubated for 30 min. at 37° C. The membrane suspension is then centrifuged for further 20 min. at 50,000 gm at 4° C. The pellet is resuspended in 50 vol. of ice-cold Tris-buffer and used immediately.
0.5 ml 50 mM Tris-buffer (pH 7.7), 0.25 ml displacer (6×100 μM DTG, 6× [test compound], or Tris-buffer), and 0.25 ml 6×2 nM. ^3 H-DTG are mixed into 5 ml s plastic test tubes and kept at 4° C. until use. The binding reaction is initiated by mixing 0.5 ml tissue suspension into this solution and incubate at 25° C. for 20 min. Glass fiber filters (Whatman GF/B) are placed on the filter machine which is then closed tightly. Just before filtration vacuum is applied, and the filters washed with 0.1% PEI solution from a spray bottle followed by one wash with Tris-buffer.
The binding reaction is stopped by filtration of the assay mixture at reduced pressure (750 mbar) followed by further 3 washes with 5 ml ice-cold Tris-buffer. The filters are then placed in counting vials and 4 ml scintillation solution added. The vials are counted in a Beckmann scintillation counter.
50 mM Tris-buffer pH 7.7: 7.38 g Trizma--7.7 plus distilled H2 O ad 1 liter. 100 ml 10% polyethylenimine (PEI): 100 ml dest. H2 O is added to approx. 20 g 50% PEI which is solubilized by stirring and heating. Diluted (1+99) before use. 6×2 nM ^3 H-DTG: The exact volume depends on the actual concentration of the batch, but is made as close as possible to 12 nM. The containers for the radioactive solution is rinsed in 96% ethanol before use.
^3 H-DTG was obtained from NEN Research Products, Du Pont Denmark. Specific activity 62.3 Ci/mmol.
The known sigma receptor ligands BMY 14802 and rimcazole were included in the test for comparison purposes.

Question: With `Fc1ccc(C2CCN(CCCCc3cn(-c4ccccc4)c4ccccc34)CC2)cc1` [Compound 9p, 1-Phenyl-3-[4-(4-(4-fluorophenyl)-1-piperidyl)-1-butyl]indole] as the molecule, how does the IC50 read?
Answer: The IC50 was 0.28 nM.

Question: How did the IC50 turn out when `Fc1ccc(-n2cc(CCCCN3CCC(c4ccccc4)CC3)c3ccccc32)cc1` [Compound 5f, 1-(4-Fluorophenyl)-3-[4-(4-phenyl-1-piperidyl)-1-butyl]indole] was run?
Answer: The IC50 was 0.04 nM.

Question: With `Cc1ccc(-n2cc(CCCCN3CCC4(CC3)COCc3ccccc34)c3ccccc32)cc1` [Compound 9i, 1'-(4-(1-(4-Methylphenyl)-3-indolyl]-1-butyl]spiro[1H-2-benzopyran-4(3H), 4'-piperidine]] as the molecule, how does the IC50 read?
Answer: The IC50 was 0.62 nM.

Question: How did the IC50 turn out when `Clc1ccc(C2CCN(CCCCc3c[nH]c4ccccc34)CC2)cc1Cl` [Compound 2dd, 3-[4-(4-(3,4-Dichlorophenyl)-1-piperidyl)-1-butyl]indole] was run?
Answer: Its IC50 is 1.7 nM.

Question: `Fc1ccc(-n2cc(CCCCN3CCC4(CC3)OCc3c(F)cccc34)c3ccccc32)cc1` [Compound 9s, 4-Fluoro-1'-[4-[1-(4-fluorophenyl)-3-indolyl]-1-butyl]spiro[isobenzofuran-1(3H),4'-piperidine]] was tested. Which IC50 did it give?
Answer: Its IC50 is 56 nM.

Question: `c1ccc2c(c1)COC21CCN(CCCCc2nsc3ccccc23)CC1` [Compound 22, 1'-(4-(1,2-Benzisothiazol-3-yl)-1-butyl)spiro[isobenzofuran-1(3H),4'-piperidine]] was tested. Which IC50 did it give?
Answer: Its IC50 is 0.05 nM.

Question: Which IC50 does the source give for `CC(C)CCCCN1CCC2(CC1)OCc1ccccc12` [Compound 4b, 1'-(5-Methyl-1-hexyl)-spiro[isobenzofuran-1(3H),4'-piperidine)] here?
Answer: The IC50 was 0.53 nM.

Question: How did the IC50 turn out when `Fc1ccc(C2CCN(CCCOc3nsc4ccccc34)CC2)cc1` [Compound 21, 3-[3-(4-(4-Fluorophenyl)-piperidin-1-yl)-1-propyloxy]-1,2-benzisothiazole] was run?
Answer: Its IC50 is 0.2 nM.

Question: How did the IC50 turn out when `c1ccc(CCN2CCC3(CC2)OCc2ccccc23)cc1` [Compound 4c, 1'-(2-Phenyl-1-ethyl)-spiro[isobenzofuran-1(3h),4'-piperidine]] was run?
Answer: The IC50 was 2.9 nM.

Question: With `c1ccc(CCCCCN2CCC3(CC2)OCc2ccccc23)cc1` [Compound 4e, 1'-(5-Phenyl-1-pentyl)-spiro[isobenzofuran-1 (3h),4'-piperidine]] as the molecule, how does the IC50 read?
Answer: The IC50 was 0.2 nM.

Question: For `Fc1ccc(-n2nc(CCCCN3CCC4(CC3)OCc3ccccc34)c3cc(C(F)(F)F)ccc32)cc1` [Compound 17a, 1'-[4-[1-(4-Fluorophenyl)-5-trifluoromethylindazol-3-yl]-1-butyl]spiro[isobenzofuran-1(3H),4'-piperidine]], which IC50 is on record?
Answer: Its IC50 is 0.11 nM.

Question: Which IC50 does the source give for `c1ccc(CCCCN2CCC3(CC2)COCc2ccccc23)cc1` [Compound 2f] here?
Answer: Its IC50 is 0.95 nM.

Question: Which IC50 does the source give for `O=S(=O)(CCCN1CCC2(CC1)OCc1ccccc12)C1CCCCC1` [Compound 2r, 1'-(3-Cyclohexylsulfonyl-1-propyl)spiro[isobenzofuran-1(3H),4'-piperidine]] here?
Answer: Its IC50 is 3 nM.

Question: With `O=C1N(CCCN2CCC3(CC2)OCc2ccccc23)CCN1c1ccccc1` [Compound 3c] as the molecule, how does the IC50 read?
Answer: Its IC50 is 1 nM.

Question: For `Fc1ccc2c(c1)c(CCCCN1CCC3(CC1)OCc1ccccc13)cn2-c1ccsc1` [Compound 9j, 1'-[4-[5-Fluoro-1-(3-thienyl)-3-indolyl]-1-butyl]-spiro[isobenzofuran-1(3H),4'-piperidine]], which IC50 is on record?
Answer: The IC50 was 0.11 nM.

Question: How did the IC50 turn out when `c1ccc2c(c1)COC21CCN(CCCCC2CCCCC2)CC1` [Compound 2b, 1'-(4-Cyclohexyl-1-butyl)spiro[isobenzofuran-1(3H), 4'-piperidine)] was run?
Answer: Its IC50 is 0.07 nM.

Question: `Fc1ccc2[nH]cc(CCCCN3CCC4(CC3)OCc3ccccc34)c2c1` [Compound 2aa] was tested. Which IC50 did it give?
Answer: Its IC50 is 0.3 nM.

Question: `O=S1(=O)CC(=CCCCN2CCC3(CC2)OCc2ccccc23)c2ccccc21` [Compound 32, 1'-[4-(2. 3-Dihydro-benzo[b]thiophen-3-yliden)-1-butyl]spiro[isobenzofuran-1(3H),4'-piperidine]-S,S-dioxide] was tested. Which IC50 did it give?
Answer: Its IC50 is 0.89 nM.

Question: With `O=C1N(CCN2CCC3(CC2)OCc2ccccc23)CCN1C1CCCCC1` [Compound 3d, 1'-(2-(3-Cyclohexylimidazolidin-2-on-1-yl)-1-ethyl)spiro[isobenzofuran-1(3H),4'-piperidine)] as the molecule, how does the IC50 read?
Answer: Its IC50 is 7.3 nM.

Question: With `Fc1ccc(C2CCN(CCCC3COc4ccc(F)cc43)CC2)cc1` (stereo not shown) [Compound 11a, 2,3-Dihydro-5-fluoro-3-[3-(4-(4-fluorophenyl)-1-piperidinyl)-1-propyl]benzofuran] as the molecule, how does the IC50 read?
Answer: Its IC50 is 0.31 nM.

Question: Which IC50 does the source give for `c1ccc2c(c1)COC21CCN(CCCCc2cn(-c3ccoc3)c3ccccc23)CC1` [Compound 5e, 1'-[4-[1-(3-Furanyl)-3-indolyl]-1-butyl]spiro[isobenzofuran-1(3H),4'-piperidine]] here?
Answer: Its IC50 is 4.7 nM.

Question: `c1ccc(CCCCN2CCC3(CCc4ccccc4O3)CC2)cc1` [Compound 2h, 3,4-Dihydro-1'-(4-phenyl-1-butyl)spiro[2H-1-benzopyran-2,4'-piperidine]] was tested. Which IC50 did it give?
Answer: Its IC50 is 1.4 nM.

Question: Which IC50 does the source give for `c1ccc2c(c1)COC21CCN(CCCCC2CNc3ccccc32)CC1` (stereo not shown) [Compound 13b, 1'-[4-(2,3-Dihydro-3-indolyl)-1-butyl]spiro[isobenzofuran-1(3H),4'-piperidine]] here?
Answer: The IC50 was 1 nM.

Question: How did the IC50 turn out when `c1ccc2c(c1)COC21CCN(CCCc2noc3ccccc23)CC1` [Compound 20, 1'-(3-(1,2-Benzisoxazol-3-yl)-1-propyl)spiro[isobenzofuran-1(3H) ,4'-piperidine]] was run?
Answer: Its IC50 is 0.63 nM.

Question: Which IC50 does the source give for `Fc1ccc2occ(CCCCN3CCC4(CC3)OCc3ccccc34)c2c1` [Compound 16, 1'-[4-(5-Fluorobenzofuran-3-yl)-1-butyl]-spiro[isobenzofuran-1(3H) ,4'-piperidine]] here?
Answer: Its IC50 is 0.15 nM.

Question: Which IC50 does the source give for `Cc1ccc(S(=O)(=O)n2cc(CCCCN3CCC4(CC3)OCc3ccccc34)c3ccccc32)cc1` [Compound 6b, 1'-(4-(1-p-Toluenesulfonyl-3-indolyl)-1-butyl)spiro[isobenzofuran-1(3H),4'-piperidine]] here?
Answer: The IC50 was 0.17 nM.

Question: With `c1ccc(CCCCN2CCC3(CC2)Cc2ccccc2CO3)cc1` [Compound 2g, 1,4-Dihydro-1'-(4-phenyl-1-butyl)spiro[3H-2-benzopyran-3,4'-piperidine]] as the molecule, how does the IC50 read?
Answer: The IC50 was 0.36 nM.

Question: For `c1ccc2c(c1)COCC21CCN(CCCCC2CNc3ccccc32)CC1` (stereo not shown) [Compound 13c, 1'-[4-(2,3-Dihydro-3-indolyl)-1-butyl]spiro[1H-2-benzopyran-4(3H) ,4'-piperidine]], which IC50 is on record?
Answer: The IC50 was 4.8 nM.

Question: How did the IC50 turn out when `Fc1ccc(-n2cc(CCCCN3CCC4(CC3)OCc3ccccc34)c3cc(F)ccc32)cc1` [Compound 9b, 1'-[4-[5-Fluoro-1-(4-fluorophenyl)-3-indolyl]-1-butyl]spiro[isobenzofuran-1(3H), 4'-piperidine]] was run?
Answer: Its IC50 is 0.06 nM.

Question: How did the IC50 turn out when `Fc1ccc(C2CCN(CCCCc3cn(-c4ccc(F)cc4)c4ccccc34)CC2)cc1` [Compound 9l, 1-(4-Fluorophenyl)-3-[4-(4-(4-fluorophenyl)-1-piperidyl)-1-butyl]indole] was run?
Answer: The IC50 was 0.14 nM.

Question: For `Cc1ccc(C2CCN(CCCCc3cn(-c4ccc(F)cc4)c4ccccc34)CC2)cc1` [Compound 9m, 1-(4-Fluorophenyl)-3-[4-(4-(4-methylphenyl)-1-piperidyl)-1-butyl]indole], which IC50 is on record?
Answer: Its IC50 is 1.6 nM.

Question: Which IC50 does the source give for `Fc1ccc(C2CCN(CCCCCCc3c[nH]c4ccccc34)CC2)cc1` [Compound 2ff, 3-[6-(4-(4-Fluorophenyl)-1-piperidinyl)-1-hexyl]indole] here?
Answer: The IC50 was 0.43 nM.

Question: With `Cn1cc(CCCCN2CCC3(CC2)OCc2ccccc23)c2ccccc21` [Compound 2bb, 1'-[4-(1-Methyl-3-indolyl)-1-butyl]-spiro[isobenzofuran-1(3H),4'-piperidine]] as the molecule, how does the IC50 read?
Answer: Its IC50 is 0.3 nM.

Question: For `O=C1Nc2ccccc2C1CCCCN1CCC(c2ccc(F)cc2)CC1` (stereo not shown) [Compound 2ii, 3-[4-(4-(4-Fluorophenyl)-1-piperidyl)-1-butyl]indol-2-one], which IC50 is on record?
Answer: Its IC50 is 5.8 nM.

Question: How did the IC50 turn out when `C1=CC2(CCN(CCCCc3ccccc3)CC2)Oc2ccccc21` [Compound 2i, 1'-(4-Phenyl-1-butyl)spiro[2H-1-benzopyran-2,4'-piperidine]] was run?
Answer: The IC50 was 4.3 nM.

Question: Which IC50 does the source give for `c1ccc2c(c1)COC21CCN(CCCCc2c[nH]c3ccccc23)CC1` [Compound 2u, 1'-[4-(3-Indolyl)-1-butyl]-spiro[isobenzofuran-1(3H),4'-piperidine]] here?
Answer: The IC50 was 0.41 nM.

Question: With `c1ccc(CCCN2CCC3(CC2)OCc2ccccc23)cc1` [Compound 4d, 1'-(3-Phenyl-1-propyl)-spiro[isobenzofuran-1(3H),4'-piperidine]] as the molecule, how does the IC50 read?
Answer: The IC50 was 1.1 nM.

Source: US6207677A, “Piperidine derivatives having anxiolytic effect” (H. Lundbeck A/S, priority 1991, dated 2001)
